According to patent US20260262643A1, “HERBICIDAL BENZOXAZINES” (FMC CORPORATION, priority 2022, published 2026):

Assays:
corn [1] = assay: Test A postemergence; type: in vivo, Zea mays; settings: postemergence, 10 days
Method in brief: (§1)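 Loam/sand soil; pre-em directed soil spray at planting, post-em spray at 1–2 leaf (2–10 cm). Compound in non-phytotoxic solvent + surfactant. Greenhouse 10 d; visual injury vs untreated, 0 = no effect, 100 = complete control.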

horseweed = assay: Test A postemergence; type: in vivo, Erigeron canadensis; settings: postemergence, 10 days
Method in brief: as §1

ragweed [2] = assay: Test A postemergence; type: in vivo, Ambrosia artemisiifolia; settings: postemergence, 10 days
Method in brief: as §1

kochia [3] = assay: Test A preemergence; type: in vivo, Bassia scoparia; settings: visual injury after 10 days, 0 to 100 scale, 0 is no effect, 100 is complete control
Method in brief: as §1

barnyardgrass [4] = assay: Test A postemergence; type: in vivo, Echinochloa crusgalli; settings: postemergence, 10 days
Method in brief: as §1

ragweed [5] = assay: Test A preemergence; type: in vivo, Ambrosia artemisiifolia; settings: visual injury after 10 days, 0 to 100 scale, 0 is no effect, 100 is complete control
Method in brief: as §1

corn [6] = assay: Test A preemergence; type: in vivo, Zea mays; settings: visual injury after 10 days, 0 to 100 scale, 0 is no effect, 100 is complete control
Method in brief: as §1

soybean [7] = assay: Test A preemergence; type: in vivo, Glycine max; settings: visual injury after 10 days, 0 to 100 scale, 0 is no effect, 100 is complete control
Method in brief: as §1

pigweed, palmer [8] = assay: Test A postemergence; type: in vivo, Amaranthus palmeri; settings: postemergence, 10 days
Method in brief: as §1

barnyardgrass [9] = assay: Test B flooded paddy test; type: in vivo, Echinochloa crus-galli; settings: 250 g ai/ha, Flood, 13 days, 0 to 100 scale (0 no effect, 100 complete control)
Method in brief: (§2)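 Percent weed or crop control, judged by eye on a 0–100 scale 13 days post-treatment, reflects compound added to a 3 cm flood maintained over 2-leaf plants in the greenhouse. Missing entries are marked with a dash.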

wheat [10] = assay: Test A preemergence; type: in vivo, Triticum aestivum; settings: visual injury after 10 days, 0 to 100 scale, 0 is no effect, 100 is complete control
Method in brief: as §1

foxtail, giant [11] = assay: Test A postemergence; type: in vivo, Setaria faberi; settings: postemergence, 10 days
Method in brief: as §1

kochia [12] = assay: Test A postemergence; type: in vivo, Bassia scoparia; settings: postemergence, 10 days
Method in brief: as §1

rice = assay: Test B flooded paddy test; type: in vivo, Oryza sativa; settings: 250 g ai/ha, Flood, 13 days, 0 to 100 scale (0 no effect, 100 complete control)
Method in brief: as §2

blackgrass [13] = assay: Test A preemergence; type: in vivo, Alopecurus myosuroides; settings: visual injury after 10 days, 0 to 100 scale, 0 is no effect, 100 is complete control
Method in brief: as §1

ryegrass, Italian [14] = assay: Test A preemergence; type: in vivo, Lolium multiflorum; settings: visual injury after 10 days, 0 to 100 scale, 0 is no effect, 100 is complete control
Method in brief: as §1

oat, wild [15] = assay: Test A preemergence; type: in vivo, Avena fatua; settings: visual injury after 10 days, 0 to 100 scale, 0 is no effect, 100 is complete control
Method in brief: as §1

barnyardgrass [16] = assay: Test A preemergence; type: in vivo, Echinochloa crusgalli; settings: visual injury after 10 days, 0 to 100 scale, 0 is no effect, 100 is complete control
Method in brief: as §1

ryegrass, Italian [17] = assay: Test A postemergence; type: in vivo, Lolium multiflorum; settings: postemergence, 10 days
Method in brief: as §1

galium = assay: Test A postemergence; type: in vivo, Galium aparine; settings: postemergence, 10 days
Method in brief: as §1

pigweed, palmer [18] = assay: Test A preemergence; type: in vivo, Amaranthus palmeri; settings: visual injury after 10 days, 0 to 100 scale, 0 is no effect, 100 is complete control
Method in brief: as §1

oat, wild [19] = assay: Test A postemergence; type: in vivo, Avena fatua; settings: postemergence, 10 days
Method in brief: as §1

wheat [20] = assay: Test A postemergence; type: in vivo, Triticum aestivum; settings: postemergence, 10 days
Method in brief: as §1

soybean [21] = assay: Test A postemergence; type: in vivo, Glycine max; settings: 500 g ai/ha, postemergence, 10 days, visual injury, 0 to 100 scale (0 no effect, 100 complete control)
Method in brief: as §1

sedge, umbrella = assay: Test B flooded paddy test; type: in vivo, Cyperus difformis; settings: 250 g ai/ha, Flood, 13 days, 0 to 100 scale (0 no effect, 100 complete control)
Method in brief: as §2

blackgrass [22] = assay: Test A postemergence; type: in vivo, Alopecurus myosuroides; settings: postemergence, 10 days
Method in brief: as §1

ducksalad = assay: Test B flooded paddy test; type: in vivo, Heteranthera limosa; settings: 250 g ai/ha, Flood, 13 days, 0 to 100 scale (0 no effect, 100 complete control)
Method in brief: as §2

foxtail, giant [23] = assay: Test A preemergence; type: in vivo, Setaria faberi; settings: visual injury after 10 days, 0 to 100 scale, 0 is no effect, 100 is complete control
Method in brief: as §1

[24] = 125 g ai/ha, 0 to 100 scale, 0 no effect, 100 complete control
[25] = 500 g ai/ha, visual injury, 0 to 100 scale (0 no effect, 100 complete control)

C=CCOc1ccc(-n2cnc(C(C)C)n2)cc1C(=O)N1C[C@H](C)Oc2c(Cl)cccc21 [Compound 110]
Corn plant response rating (corn [1]; [24]): 10
Plant response rating, Corn (corn [1]; [25]): 50
Horseweed plant response rating (horseweed; [24]): 0
Plant response rating, Horseweed (horseweed; [25]): 0
Ragweed plant response rating (ragweed [2]; [24]): 10
Plant response rating, Ragweed (ragweed [2]; [25]): 60
Plant response rating, Kochia (kochia [3]; 125 g ai/ha): 0
Plant response rating, Kochia (kochia [3]; 500 g ai/ha): 20
Barnyardgrass plant response rating (barnyardgrass [4]; [24]): 20
Plant response rating, Barnyardgrass (barnyardgrass [4]; [25]): 50
Plant response rating, Ragweed (ragweed [5]; 125 g ai/ha): 0
Plant response rating, Ragweed (ragweed [5]; 500 g ai/ha): 40
Plant response rating, Corn (corn [6]; 125 g ai/ha): 0
Plant response rating, Corn (corn [6]; 500 g ai/ha): 50
Plant response rating, Soybean (soybean [7]; 125 g ai/ha): 40
Plant response rating, Soybean (soybean [7]; 500 g ai/ha): 60
Pigweed, Palmer plant response rating (pigweed, palmer [8]; [24]): 40
Plant response rating, Pigweed, Palmer (pigweed, palmer [8]; [25]): 50
Plant response rating, Barnyardgrass (barnyardgrass [9]): 55
Plant response rating, Wheat (wheat [10]; 125 g ai/ha): 20
Plant response rating, Wheat (wheat [10]; 500 g ai/ha): 30
Foxtail, Giant plant response rating (foxtail, giant [11]; [24]): 40
Plant response rating, Foxtail, Giant (foxtail, giant [11]; [25]): 90
Kochia plant response rating (kochia [12]; [24]): 70
Plant response rating, Kochia (kochia [12]; [25]): 90
Plant response rating, Rice (rice): 0
Plant response rating, Blackgrass (blackgrass [13]; 125 g ai/ha): 40
Plant response rating, Blackgrass (blackgrass [13]; 500 g ai/ha): 70
Plant response rating, Ryegrass, Italian (ryegrass, Italian [14]; 125 g ai/ha): 70
Plant response rating, Ryegrass, Italian (ryegrass, Italian [14]; 500 g ai/ha): 100
Plant response rating, Oat, Wild (oat, wild [15]; 125 g ai/ha): 0
Plant response rating, Oat, Wild (oat, wild [15]; 500 g ai/ha): 50
Plant response rating, Barnyardgrass (barnyardgrass [16]; 125 g ai/ha): 50
Plant response rating, Barnyardgrass (barnyardgrass [16]; 500 g ai/ha): 90
Ryegrass, Italian plant response rating (ryegrass, Italian [17]; [24]): 20
Plant response rating, Ryegrass, Italian (ryegrass, Italian [17]; [25]): 80
Galium plant response rating (galium; [24]): 100
Plant response rating, Galium (galium; [25]): 100
Plant response rating, Pigweed, Palmer (pigweed, palmer [18]; 125 g ai/ha): 90
Plant response rating, Pigweed, Palmer (pigweed, palmer [18]; 500 g ai/ha): 100
Oat, Wild plant response rating (oat, wild [19]; [24]): 0
Plant response rating, Oat, Wild (oat, wild [19]; [25]): 30
Wheat plant response rating (wheat [20]; [24]): 10
Plant response rating, Wheat (wheat [20]; [25]): 20
Plant response rating, Soybean (soybean [21]): 100
Plant response rating, Sedge, Umbrella (sedge, umbrella): 65
Blackgrass plant response rating (blackgrass [22]; [24]): 0
Plant response rating, Blackgrass (blackgrass [22]; [25]): 50
Plant response rating, Ducksalad (ducksalad): 0
Plant response rating, Foxtail, Giant (foxtail, giant [23]; 125 g ai/ha): 90
Plant response rating, Foxtail, Giant (foxtail, giant [23]; 500 g ai/ha): 100
